Measurements reported in patent publication US8192962B2, “Processes for detecting toxic substances” (Daikin Industries, Ltd., priority 2001, dated 2012).

Tested on: Metabolism protein genes
Assay: DNA chip mRNA expression in yeast, metabolism protein genes (Table 7)
Format: cell-based, Saccharomyces cerevisiae S288C
Summary of the method: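 Measured as treated-to-untreated fluorescence ratio on a full-genome yeast DNA chip. Cells (S288C, YPD, 25° C.) were exposed in log phase for two hours to one chemical, dosed to curb growth without killing.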

Compound: N#Cc1c(Cl)c(Cl)c(Cl)c(C#N)c1Cl [(9), 2,4,5,6-tetrachloro-1,3-benzenedicarbonitrile]
- The level of expressed mRNA in the presence of chemical substance/The level of expressed mRNA in the absence of chemical substance (yeast gene YER178W): 1.7
- level of expressed mRNA in the presence/in the absence of chemical substance (yeast gene YFL011W): 0.3
- The level of expressed mRNA in the presence of chemical substance/The level of expressed mRNA in the absence of chemical substance (yeast gene YFL014W): 13.1
- The level of expressed mRNA in the presence of chemical substance/The level of expressed mRNA in the absence of chemical substance (yeast gene YFL030W): 24.5
- The level of expressed mRNA in the presence of chemical substance/The level of expressed mRNA in the absence of chemical substance (yeast gene YFL031W): 1.0
- The level of expressed mRNA in the presence of chemical substance/The level of expressed mRNA in the absence of chemical substance (yeast gene YFL056C): 162.3
- The level of expressed mRNA in the presence of chemical substance/The level of expressed mRNA in the absence of chemical substance (yeast gene YFL057C): 51.8
- The level of expressed mRNA in the presence of chemical substance/The level of expressed mRNA in the absence of chemical substance (yeast gene YFR047C): 3.0
- level of expressed mRNA in the presence/in the absence of chemical substance (yeast gene YGL012W): 0.3
- The level of expressed mRNA in the presence of chemical substance/The level of expressed mRNA in the absence of chemical substance (yeast gene YGL022W): 0.9
- The level of expressed mRNA in the presence of chemical substance/The level of expressed mRNA in the absence of chemical substance (yeast gene YGL026C): 3.7
- level of expressed mRNA in the presence/in the absence of chemical substance (yeast gene YGL115W): 1.2
- The level of expressed mRNA in the presence of chemical substance/The level of expressed mRNA in the absence of chemical substance (yeast gene YGL126W): 1.6
- The level of expressed mRNA in the presence of chemical substance/The level of expressed mRNA in the absence of chemical substance (yeast gene YGL202W): 1.3
- The level of expressed mRNA in the presence of chemical substance/The level of expressed mRNA in the absence of chemical substance (yeast gene YGL209W): 0.6
- The level of expressed mRNA in the presence of chemical substance/The level of expressed mRNA in the absence of chemical substance (yeast gene YGL248W): 0.2
- The level of expressed mRNA in the presence of chemical substance/The level of expressed mRNA in the absence of chemical substance (yeast gene YGL252C): 2.7
- The level of expressed mRNA in the presence of chemical substance/The level of expressed mRNA in the absence of chemical substance (yeast gene YGL254W): 3.1
- The level of expressed mRNA in the presence of chemical substance/The level of expressed mRNA in the absence of chemical substance (yeast gene YGR037C): 1.7
- The level of expressed mRNA in the presence of chemical substance/The level of expressed mRNA in the absence of chemical substance (yeast gene YGR055W): 5.0
- level of expressed mRNA in the presence/in the absence of chemical substance (yeast gene YGR096W): 0.8
- level of expressed mRNA in the presence/in the absence of chemical substance (yeast gene YGR191W): 0.1
- The level of expressed mRNA in the presence of chemical substance/The level of expressed mRNA in the absence of chemical substance (yeast gene YGR194C): 2.4
- level of expressed mRNA in the presence/in the absence of chemical substance (yeast gene YGR204W): 0.9
- The level of expressed mRNA in the presence of chemical substance/The level of expressed mRNA in the absence of chemical substance (yeast gene YGR256W): 3.4
- The level of expressed mRNA in the presence of chemical substance/The level of expressed mRNA in the absence of chemical substance (yeast gene YGR282C): 0.8
- level of expressed mRNA in the presence/in the absence of chemical substance (yeast gene YGR288W): 1.6
- level of expressed mRNA in the presence/in the absence of chemical substance (yeast gene YHR025W): 0.2
- The level of expressed mRNA in the presence of chemical substance/The level of expressed mRNA in the absence of chemical substance (yeast gene YHR111W): 4.5
- level of expressed mRNA in the presence/in the absence of chemical substance (yeast gene YHR123W): 0.8
- The level of expressed mRNA in the presence of chemical substance/The level of expressed mRNA in the absence of chemical substance (yeast gene YHR137W): 0.2
- The level of expressed mRNA in the presence of chemical substance/The level of expressed mRNA in the absence of chemical substance (yeast gene YHR174W): 1.0
- The level of expressed mRNA in the presence of chemical substance/The level of expressed mRNA in the absence of chemical substance (yeast gene YHR176W): 6.3
- level of expressed mRNA in the presence/in the absence of chemical substance (yeast gene YIL006W): 0.9
- The level of expressed mRNA in the presence of chemical substance/The level of expressed mRNA in the absence of chemical substance (yeast gene YIL045W): 2.1
- The level of expressed mRNA in the presence of chemical substance/The level of expressed mRNA in the absence of chemical substance (yeast gene YIL107C): 3.5
- The level of expressed mRNA in the presence of chemical substance/The level of expressed mRNA in the absence of chemical substance (yeast gene YIL154C): 2.4
- The level of expressed mRNA in the presence of chemical substance/The level of expressed mRNA in the absence of chemical substance (yeast gene YIL155C): 2.5
- The level of expressed mRNA in the presence of chemical substance/The level of expressed mRNA in the absence of chemical substance (yeast gene YIL167W): 6.9
- The level of expressed mRNA in the presence of chemical substance/The level of expressed mRNA in the absence of chemical substance (yeast gene YIL168W): 7.8
- The level of expressed mRNA in the presence of chemical substance/The level of expressed mRNA in the absence of chemical substance (yeast gene YIR031C): 2.6
- The level of expressed mRNA in the presence of chemical substance/The level of expressed mRNA in the absence of chemical substance (yeast gene YIR032C): 2.6
- The level of expressed mRNA in the presence of chemical substance/The level of expressed mRNA in the absence of chemical substance (yeast gene YIR034C): 3.2
- The level of expressed mRNA in the presence of chemical substance/The level of expressed mRNA in the absence of chemical substance (yeast gene YIR036C): 3.3
- The level of expressed mRNA in the presence of chemical substance/The level of expressed mRNA in the absence of chemical substance (yeast gene YJL031C): 4.7
- The level of expressed mRNA in the presence of chemical substance/The level of expressed mRNA in the absence of chemical substance (yeast gene YJL045W): 9.7
- The level of expressed mRNA in the presence of chemical substance/The level of expressed mRNA in the absence of chemical substance (yeast gene YJL060W): 5.3
- The level of expressed mRNA in the presence of chemical substance/The level of expressed mRNA in the absence of chemical substance (yeast gene YJL068C): 6.5
- The level of expressed mRNA in the presence of chemical substance/The level of expressed mRNA in the absence of chemical substance (yeast gene YJL088W): 3.2
- The level of expressed mRNA in the presence of chemical substance/The level of expressed mRNA in the absence of chemical substance (yeast gene YJL099W): 3.1
